Series [1] concerns RAW264.7. Put plainly: Antiinflammatory activity in mouse RAW264.7 cells assessed as decrease in LPS-induced NO secretion preincubated for 1 hr followed by LPS stimulation and measured after 24 hrs by Griess reagent based assay. The class given is functional, cell-based. (The Griess reaction detects nitrite, a stable product of nitric oxide.)
For series [2], the system named is RAW264.7. As to the kind of experiment: Antiinflammatory activity in mouse RAW264.7 cells assessed as decrease in LPS-induced TNF-alpha secretion preincubated for 1 hr followed by LPS stimulation and measured after 24 hrs by ELISA. In kind it is functional, cell-based. Background: In an ELISA, binding on a coated surface is turned into a signal by an enzyme label.

The test system of series [3] is RAW264.7. As to the kind of experiment: Antiinflammatory activity in mouse RAW264.7 cells assessed as decrease in LPS-induced IL-1beta secretion preincubated for 1 hr followed by LPS stimulation and measured after 24 hrs by ELISA. In kind it is functional, cell-based.
In series [4] the target is T1, Toll-like receptor 4 (Homo sapiens, UniProt O00206). As to the kind of experiment: Inhibition of TLR4 in HEK293 cells assessed as reduction in LPS-stimulated NF-kappaB activation at 10 uM incubated for 16 to 24 hrs by SEAP reporter gene assay relative to control. The class given is cell-based. The conditions noted are these: time 16-24 hrs. (Reporter assays use an easily measured gene product as a stand-in for the process of interest.)

A short description of series [5]: Cytotoxicity against HEK293 cells assessed as cell survival at 10 uM incubated for 16 to 24 hrs by MTT method. In kind it is toxicity, cell-based. To be noted: human, time 16-24 hrs, read-out: Activity.
For series [6], the system named is Liver. Put plainly: Inhibition of CIS-induced TLR4 mRNA expression in rat hepatic tissue by SYBR-green dye based RT-PCR analysis. In kind it is functional.
Series [7] relates to Liver. Put plainly: Inhibition of CIS-induced TLR4 protein expression in rat hepatic tissue by Western blot analysis. The class given is functional.
In series [8] the test system is Liver. As to the kind of experiment: Inhibition of CIS-induced MyD88 mRNA expression in rat hepatic tissue by SYBR-green dye based RT-PCR analysis. In kind it is functional.
Series [9] has as its system Liver. Put plainly: Inhibition of CIS-induced NF-kappaBp53 mRNA expression in rat hepatic tissue by SYBR-green dye based RT-PCR analysis. The class given is functional.
Series [10] addresses T1, Toll-like receptor 4. Put plainly: Inhibition of LPS-stimulated TLR4 activation in HEK-Blue-hTLR4 cells assessed as reduction in SEAP release preincubated for 15 mins followed by LPS stimulation and measured after 16 hrs by microplate reader assay. In kind it is cell-based.
Series [11] is described as follows: Inhibition of LPS-induced NO production in mouse BV-2 microglia cells incubated for 24 hrs by 2,3-diaminonaphthalene assay. The class given is functional, cell-based. To be noted: BV-2, 24 h.
Series [12] concerns the target T1, Toll-like receptor 4. As to the kind of experiment: Inhibition of human TLR4 expressed in HEK293-Blue hTLR4 cells assessed as SEAP expression. In kind it is cell-based, HEK-Blue hTLR4.
Series [13] concerns HEK293T. As to the kind of experiment: Inhibition of LPS-stimulated human TLR4/MD2 expressed in HEK293T cells assessed as reduction in NF-kappaB activation preincubated for 1 hr followed by LPS stimulation for 8 hrs by luciferase reporter gene assay. The conditions noted are these: time 9.0 hrs. The class given is cell-based.
For series [14], the target named is T1, Toll-like receptor 4. Put plainly: Binding affinity to TLR4 in human THP-1 monocytes after 48 hrs by ELISA. The class given is cell-based.
Series [15] can be described thus: Inhibition of LPS-stimulated NO production in mouse RAW264.7 cells at 10 nM incubated for overnight by 2,3-diaminonaphthalene assay relative to control. The class given is functional.
Series [16] concerns the target T1, Toll-like receptor 4. As to the kind of experiment: Inhibition of TLR4 in HEK293 cells assessed as reduction in LPS-stimulated NF-kappaB activation at 20 uM incubated for 16 to 24 hrs by SEAP reporter gene assay relative to control. The class given is cell-based. The conditions noted are these: time 16-24 hrs.
The subject of series [17] is HEK293. Put plainly: Cytotoxicity against HEK293 cells assessed as cell survival at 20 uM incubated for 16 to 24 hrs by MTT method. The class given is functional. To be noted: Homo sapiens, time 16-24 hrs, read-out: Activity.
Series [18] is described as follows: Inhibition of HMGB1-induced TLR4 protein expression in mouse primary microglia preincubated for 12 hrs followed by HMGB1 stimulation for 30 mins by Western blot analysis. In kind it is functional. To be noted: time 12.5 hrs.
Series [19] in a line: Inhibition of TLR4 expression in human monocytes. In kind it is functional, cell-based. To be noted: Monocyte.

Each structure is given as a SMILES string. Converted amounts (≈) assume the structure as drawn.

T1 sequence (O00206 whole entry): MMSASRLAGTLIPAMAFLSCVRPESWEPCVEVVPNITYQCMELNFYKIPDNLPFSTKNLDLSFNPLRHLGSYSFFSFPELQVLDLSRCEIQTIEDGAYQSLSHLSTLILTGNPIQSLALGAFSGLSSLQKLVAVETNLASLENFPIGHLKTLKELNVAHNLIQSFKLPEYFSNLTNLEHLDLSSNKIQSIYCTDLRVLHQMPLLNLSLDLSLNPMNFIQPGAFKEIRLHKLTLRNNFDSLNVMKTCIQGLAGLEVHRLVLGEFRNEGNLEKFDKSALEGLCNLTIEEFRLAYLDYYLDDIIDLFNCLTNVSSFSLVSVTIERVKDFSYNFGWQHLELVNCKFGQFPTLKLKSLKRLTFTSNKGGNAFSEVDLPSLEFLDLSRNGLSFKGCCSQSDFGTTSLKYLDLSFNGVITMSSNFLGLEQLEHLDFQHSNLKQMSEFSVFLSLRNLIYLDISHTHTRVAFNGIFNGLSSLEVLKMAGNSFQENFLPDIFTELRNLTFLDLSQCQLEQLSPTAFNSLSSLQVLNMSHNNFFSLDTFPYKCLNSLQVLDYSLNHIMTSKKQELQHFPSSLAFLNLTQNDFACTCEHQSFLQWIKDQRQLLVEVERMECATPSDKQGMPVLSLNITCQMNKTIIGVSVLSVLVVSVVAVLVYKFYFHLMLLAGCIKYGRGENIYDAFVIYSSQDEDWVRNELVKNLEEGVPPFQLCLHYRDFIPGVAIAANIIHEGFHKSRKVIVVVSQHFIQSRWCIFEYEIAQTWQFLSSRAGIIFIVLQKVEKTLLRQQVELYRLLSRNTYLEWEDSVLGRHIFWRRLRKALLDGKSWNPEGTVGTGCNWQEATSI

Broadly, the IC50 is the concentration that gives 50% inhibition. With `O=S(=O)(Nc1ccc(C(F)(F)F)cc1)c1cccc2cccnc12`, the IC50 in series [1] stood at 2.61 µM; in [2], 9.74 µM; in [3] it was 12.7 µM.
Broadly, the inhibition is the share of the control response that was lost under treatment. For the compound `C=CC(=O)N(c1ccc(F)cc1Cl)S(=O)(=O)c1ccccc1C(=O)OC`, in series [4], the inhibition came to 100%. For the same compound, in series [5], the viability at 10 µM stood at 88.5%.
Take `CC(/C=C/C=C(\C)C(=O)O[C@@H]1O[C@H](CO[C@@H]2O[C@H](CO)[C@@H](O)[C@H](O)[C@H]2O)[C@@H](O)[C@H](O)[C@H]1O)=C\C=C\C=C(C)\C=C\C=C(/C)C(=O)O[C@@H]1O[C@H](CO[C@@H]2O[C@H](CO)[C@@H](O)[C@H](O)[C@H]2O)[C@@H](O)[C@H](O)[C@H]1O` [CROCIN]: the “inhibition (INH)” value in series [6] stood at 57.7%; in [7], 53.1%; in series [8], 53.2%; in [9], 66.2%.
In the case of `C=CC(=O)N(c1ccc(F)cc1Cl)S(=O)(=O)N1CCCCC1C(=O)OC` (stereo not drawn), in [4], the inhibition was 100%. In addition, in [5], the viability at 10 µM was 92.2%.
Take `CCCCCCCCC/C=C\CCCCCCC(=O)N[C@H]1[C@H](OC(=O)CCC(=O)O)O[C@H](CO)[C@@H](OC(=O)CCC(=O)O)[C@@H]1OC(=O)CCCCCCCCCCCCC`: in [10], the IC50 was 2.7 µM.
In series [11], `O=C1CC[C@@]2(O)[C@H]3Cc4ccc(O)c5c4[C@@]2(CCN3CC2CC2)[C@H]1O5` [NALTREXONE] gave an IC50 of 106 µM.
In the case of `COc1ccc(C(C)=O)c(Oc2ccc(NC(=O)/C=C/c3cc(OC)c(OC)c(OC)c3)cc2)c1`, in series [1], the IC50 was 6.96 µM.
For the compound `CCCCC/C=C\C/C=C\CCCCCCC(=O)N[C@H]1[C@H](OC(=O)CCC(=O)O)O[C@H](CO)[C@@H](OC(=O)CCC(=O)O)[C@@H]1OC(=O)CCCCCC/C=C\C/C=C\CCCCC`, the IC50 in series [10] was determined as 4.35 µM.
On to `COc1ccc(N/C(N)=N/c2ncc(C(=O)c3ccccc3O)cn2)cc1`, for which the IC50 in series [12] is 27 µM.
Broadly, the MIC is the lowest concentration that inhibits growth of the organism. Regarding `O=C(/C=C/c1ccc(O)c(O)c1)OCCc1ccccc1`, in [13], the MIC stood at 1 µM (≈ 0.284 µg/mL).
As to `COc1ccc(C(=O)c2cnc(/N=C(\N)Nc3ccc(F)cc3)nc2)c(O)c1`, the IC50 in series [12] amounted to 18 µM.
`CCCCCCCC/C=C\CCCCCCC(=O)N[C@H]1[C@H](OC(=O)CCC(=O)O)O[C@H](CO)[C@@H](OC(=O)CCC(=O)O)[C@@H]1OC(=O)CCCCCC/C=C\CCCCCCCC`: in series [10], the IC50 came out at 3.5 µM.
On the same count and under the same terms, as for `CCCCCCCCCCCCCC(=O)N[C@H]1[C@H](OC(=O)CCC(=O)O)O[C@H](CO)[C@@H](OC(=O)CCC(=O)O)[C@@H]1OC(=O)CCCCCCCCCCCCC`, the figure is 5.91 µM.
For `CC(=O)N[C@H]1[C@H](OC2CCCCC2)O[C@H](CO)[C@@H](O[C@@H]2O[C@H](CO)[C@@H](O[C@@H]3O[C@H](CO)[C@@H](O[C@@H]4O[C@H](CO)[C@@H](O[C@@H]5O[C@H](CO)[C@@H](O[C@@H]6O[C@H](CO)[C@@H](O)[C@H](O)[C@H]6NC(C)=O)[C@H](O)[C@H]5NC(C)=O)[C@H](O)[C@H]4NC(C)=O)[C@H](O)[C@H]3NC(C)=O)[C@H](O)[C@H]2NC(C)=O)[C@@H]1O`, the IC50 in [14] turned out to be 0.15 µM.
In turn, `CCOC(=O)C1=C[C@@H](O)CC[C@H]1S(=O)(=O)Cc1ccc(F)cc1Cl` yielded an inhibition at 0.01 µM in series [15] of 98%.
Turning to `CC(C)Nc1ccc(N2CC[C@]34CCCC[C@H]3[C@H]2Cc2ccc(O)cc24)cc1`, the inhibition in series [16] amounted to 99.8%. The viability at 20 µM in series [17] was 89.9%.
In series [18], `COc1ccc(C[C@H]2COC(=O)[C@@H]2Cc2ccc(O[C@@H]3O[C@H](CO)[C@@H](O)[C@H](O)[C@H]3O)c(OC)c2)cc1OC` [ARCTIIN] gave an MIC of no more than 50 µM.
On to `N/C(=N\c1ncc(C(=O)c2cc(Cl)ccc2O)cn1)Nc1ccc(F)cc1`, for which, in [12], the IC50 amounted to 40 µM.
For `CC(=O)N[C@H]1[C@H](Oc2ccc([N+](=O)[O-])cc2)O[C@H](CO)[C@@H](O)[C@@H]1O`, the half-inhibitory concentration (IC50) in [19] came out at 0.042 µM.
As to `CCCCC/C=C\C/C=C\CCCCCCC(=O)N[C@H]1[C@H](OC(=O)CCC(=O)O)O[C@H](CO)[C@@H](OC(=O)CCC(=O)O)[C@@H]1OC(=O)CCCCCCCCCCCCC`, the concentration for half-maximal inhibition (IC50) in series [10] came out at 6.61 µM.

For the origin of these results see ChEMBL document CHEMBL5126542, “Toll-like receptor 4 (TLR4) inhibitors: Current research and prospective” (Eur J Med Chem, 2022).
